Test results as given in patent US20230257385A1, “SALT AND SOLID FORMS OF TABERNANTHALOG” (priority 2021, published 2023).
“Also recorded” adds a separate entry of the source. Structures can show the parent of a compound that is named as a salt.

Key:
[1] = Solubility determinations in SIF buffers FaSSIF, FeSSIF, FaSSGF (Example 8, Experiment 5); settings: for solubility at 24 h: 37 °C, thermodynamic from solid; for fate of the suspended phase in FaSSGF (XRPD, 1H NMR): up to 24 h
How it was run: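 Suspensions in FaSSIF, FeSSIF or FaSSGF held at 37° C for 24 h, sampled at set time points and centrifuged. Pellets checked by XRPD, wet and dried, for form change.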

[2] = Qualitative solubility screen of Tabernanthalog sorbate salt (Example 10, Experiment 2); assay type: physicochemical
Description: The qualitative solubility screen was carried out to determine the range of solvents incorporated into future suspension equilibration panels. Products that crystallised were centrifuged and analysed as wet pellet by XRPD, dried under reduced pressure and re-analysed by XRPD, with selected samples further analysed by TGA and ^1H NMR spectroscopy.
If insoluble at 5 vol, the solvent quantity was increased to 10 vol, 15 vol and 20 vol of the respective solvent. The suspensions that occurred upon cooling down were centrifuged and the solvent wet pellets were analysed by XRPD.
The insoluble suspensions were additionally worked up for XRPD analysis. The resultant powder patterns were subsequently cross-referenced against the input supplied material.

[3] = Acetone/Water (5% v/v, 0.5 aw), 5 vol

Structure (SMILES): COc1ccc2c3c([nH]c2c1)CCN(C)CC3 [tabernanthalog sorbate salt]
- Solubility in SIF buffers: FeSSIF ([1]; 37° C. up to 1 h): Insoluble
- Solubility in SIF buffers: FaSSGF ([1]; 37° C. up to 24 h): Insoluble
- solubility at 24 h ([1]; pH 5, fessif): > 30 mg/mL
- solubility at 24 h ([1]; pH 6.5, fassif): > 30 mg/mL
- solubility in the SIF buffers (in words) ([1]; FaSSIF, FeSSIF, FaSSGF): highly soluble in the SIF buffers examined; also recorded: highly soluble in the SIF buffers used, apart from FaSSGF
- behaviour at 30 mg/ml in SIF buffers ([1]; FaSSIF, FeSSIF, FaSSGF, 37° C., 24 h): only remained suspended in FaSSGF
- solubility in the SIF buffers (in words) ([1]; FaSSIF, FeSSIF, FaSSGF, listed as Tabernanthalog sorbate salt (Form A)): readily soluble in FaSSIF and FeSSIF during 24 h
- Tabernanthalog RRT = 1.00 (trended HPLC data, chemical purity) ([1]; tabernanthalog sorbate salt, input before FaSSGF): 99.41
- fate of the suspended phase in FaSSGF (XRPD, 1H NMR) ([1]; 37° C.): supported disproportionation
- fate of the suspended phase in FaSSGF (XRPD, 1H NMR) ([1]; 37° C., listed as Tabernanthalog sorbate salt (Form A)): only exhibited disproportionation after 24 h in FaSSGF
- Solid on cooling ([2]; 2-Propanol, 5 vol): ✓
- Solution at reflux ([2]; 2-Propanol, 5 vol): ✓
- Solid on cooling ([2]; 2-Propanol, 10 vol): ✓
- Solution at reflux ([2]; 2-Propanol, 10 vol): ✓
- Solid on cooling ([2]; 2-Propanol, 15 vol): ✓
- Solution at reflux ([2]; 2-Propanol, 15 vol): ✓
- Solid on cooling ([2]; 2-Propanol, 20 vol): ✓
- Solution at reflux ([2]; 2-Propanol, 20 vol): ✓
- Solid on cooling ([2]; Acetone, 10 vol): ✓
- Solution at reflux ([2]; Acetone, 10 vol): ✓
- Solid on cooling ([2]; Acetone, 15 vol): ✓
- Solution at reflux ([2]; Acetone, 15 vol): ✓
- Solid on cooling ([2]; Acetone, 20 vol): ✓
- Solution at reflux ([2]; Acetone, 20 vol): ✓
- Solid on cooling [2, 3]: ✓
- Solution at 40° C. [2, 3]: ✓
- Solid on cooling ([2]; Chlorobenzene, 5 vol): ✓
- Solution at reflux ([2]; Chlorobenzene, 5 vol): ✓
- Solid on cooling ([2]; Chlorobenzene, 10 vol): ✓
- Solution at reflux ([2]; Chlorobenzene, 10 vol): ✓
- Solid on cooling ([2]; Chlorobenzene, 15 vol): ✓
- Solution at reflux ([2]; Chlorobenzene, 15 vol): ✓
- Solid on cooling ([2]; Chlorobenzene, 20 vol): ✓
- Solution at 20° C. ([2]; Chlorobenzene, 20 vol): ×
- Solution at reflux ([2]; Chlorobenzene, 20 vol): ✓
- Solid on cooling ([2]; DCM, 5 vol): ✓
- Solution at reflux ([2]; DCM, 5 vol): ✓
- Solid on cooling ([2]; DCM, 10 vol): ✓
- Solution at 40° C. ([2]; DCM, 10 vol): ✓
- Solution at 40° C. ([2]; DCM, 15 vol): ✓
- Solid on cooling ([2]; EtOAc, 5 vol): ✓
- Solution at reflux ([2]; EtOAc, 5 vol): ✓
- Solid on cooling ([2]; EtOAc, 10 vol): ✓
- Solution at reflux ([2]; EtOAc, 10 vol): ✓
- Solid on cooling ([2]; EtOAc, 15 vol): ✓
- Solution at reflux ([2]; EtOAc, 15 vol): ✓
- Solid on cooling ([2]; EtOAc, 20 vol): ✓
- Solution at reflux ([2]; EtOAc, 20 vol): ✓
- Solid on cooling ([2]; EtOH, 5 vol): ✓
- Solution at reflux ([2]; EtOH, 5 vol): ✓
- Solid on cooling ([2]; EtOH, 10 vol): ✓
- Solution at 40° C. ([2]; EtOH, 10 vol): ✓
- Solution at 40° C. ([2]; EtOH, 15 vol): ✓
- Solution at 20° C. ([2]; Ethanol/Water (15% v/v, 0.5 aw), 5 vol): ✓
- Solid on cooling ([2]; Ethyl formate, 5 vol): ✓
- Solution at reflux ([2]; Ethyl formate, 5 vol): ✓
- Solid on cooling ([2]; Ethyl formate, 10 vol): ✓
- Solution at reflux ([2]; Ethyl formate, 10 vol): ✓
- Solid on cooling ([2]; Ethyl formate, 15 vol): ✓
- Solution at reflux ([2]; Ethyl formate, 15 vol): ✓
- Solid on cooling ([2]; Ethyl formate, 20 vol): ✓
- Solution at reflux ([2]; Ethyl formate, 20 vol): ✓
- Solution at reflux ([2]; Heptane, 10 vol): Oiled
- Solution at 40° C. ([2]; Isopropanol/Water (12%, v/v, 0.5 aw), 5 vol): ✓
- Solid on cooling ([2]; Isopropyl acetate, 5 vol): ✓
- Solution at reflux ([2]; Isopropyl acetate, 5 vol): ✓
- Solid on cooling ([2]; Isopropyl acetate, 10 vol): ✓
- Solution at reflux ([2]; Isopropyl acetate, 10 vol): ✓
- Solid on cooling ([2]; Isopropyl acetate, 15 vol): ✓
- Solution at reflux ([2]; Isopropyl acetate, 15 vol): ✓
- Solid on cooling ([2]; Isopropyl acetate, 20 vol): ✓
- Solution at reflux ([2]; Isopropyl acetate, 20 vol): ✓
- Solid on cooling ([2]; MEK, 5 vol): ✓
- Solution at reflux ([2]; MEK, 5 vol): ✓
- Solid on cooling ([2]; MEK, 10 vol): ✓
- Solution at reflux ([2]; MEK, 10 vol): ✓
- Solid on cooling ([2]; MEK, 15 vol): ✓
- Solution at reflux ([2]; MEK, 15 vol): ✓
- Solid on cooling ([2]; MEK, 20 vol): ✓
- Solution at 40° C. ([2]; MEK, 20 vol): ✓
- Solid on cooling ([2]; MeCN, 5 vol): ✓
- Solution at reflux ([2]; MeCN, 5 vol): ✓
- Solid on cooling ([2]; MeCN, 10 vol): ✓
- Solution at reflux ([2]; MeCN, 10 vol): ✓
- Solid on cooling ([2]; MeCN, 15 vol): ✓
- Solution at reflux ([2]; MeCN, 15 vol): ✓
- Solid on cooling ([2]; MeCN, 20 vol): ✓
- Solution at reflux ([2]; MeCN, 20 vol): ✓
- Solution at 20° C. ([2]; MeOH, 5 vol): ✓
- Solid on cooling ([2]; MeTHF, 5 vol): ✓
- Solution at reflux ([2]; MeTHF, 5 vol): ✓
- Solid on cooling ([2]; MeTHF, 10 vol): ✓
- Solution at reflux ([2]; MeTHF, 10 vol): ✓
- Solid on cooling ([2]; MeTHF, 15 vol): ✓
- Solution at reflux ([2]; MeTHF, 15 vol): ✓
- Solid on cooling ([2]; MeTHF, 20 vol): ✓
- Solution at reflux ([2]; MeTHF, 20 vol): ✓
- Solid on cooling ([2]; Methyl acetate, 10 vol): ✓
- Solution at reflux ([2]; Methyl acetate, 10 vol): ✓
- Solid on cooling ([2]; Methyl acetate, 15 vol): ✓
- Solution at reflux ([2]; Methyl acetate, 15 vol): ✓
- Solid on cooling ([2]; Methyl acetate, 20 vol): ✓
- Solution at reflux ([2]; Methyl acetate, 20 vol): ✓
- Solid on cooling ([2]; Nitromethane, 5 vol): ✓
- Solution at reflux ([2]; Nitromethane, 5 vol): ✓
- Solid on cooling ([2]; Nitromethane, 10 vol): ✓
- Solution at reflux ([2]; Nitromethane, 10 vol): ✓
- Solid on cooling ([2]; Nitromethane, 15 vol): ✓
- Solution at reflux ([2]; Nitromethane, 15 vol): ✓
- Solid on cooling ([2]; Nitromethane, 20 vol): ✓
- Solution at reflux ([2]; Nitromethane, 20 vol): ✓
- Solid on cooling ([2]; THF, 5 vol): ✓
- Solution at reflux ([2]; THF, 5 vol): ✓
- Solution at reflux ([2]; THF, 10 vol): ✓
- Solid on cooling ([2]; Toluene, 5 vol): ✓
- Solution at reflux ([2]; Toluene, 5 vol): ✓
- Solid on cooling ([2]; Toluene, 10 vol): ✓
- Solution at reflux ([2]; Toluene, 10 vol): ✓
- Solid on cooling ([2]; Toluene, 15 vol): ✓
- Solution at reflux ([2]; Toluene, 15 vol): ✓
- Solid on cooling ([2]; Toluene, 20 vol): ✓
- Solution at reflux ([2]; Toluene, 20 vol): ✓
- Solid on cooling ([2]; Water, 5 vol): ✓
- Solution at reflux ([2]; Water, 5 vol): ✓
- Solution at reflux ([2]; Water, 10 vol): ✓
